US12497358B2, “Inhibitor of EIF2α dephosphorylation” (THE ROYAL INSTITUTION FOR THE ADVANCEMENT OF …, priority 2021, dated 2025)

Key:
[1] = system: elF2α phosphorylation in C2C12 cells; assay: Immunoblot of P-elF2α and total elF2α in C2C12 cell lysates; format: cell-based
Protocol: (§1) Moreover, cells and single EDL myofibres were cultured in 39% Dulbecco's modified eagle medium (DMEM), 39% F12, 20% fetal calf serum (FCS) (Life Technologies), 2% UltroserG™ (Pall Life Sciences). C2C12 myoblasts were cultured in DMEM supplemented with 20% FCS. When indicated, culture conditions were supplemented with 0.1% dimethylsulfoxide (DMSO control, Sigma), 10 μM sal003 (Sigma), or 0.1-0.2 μM C15.
For immunoblotting, cell lysates were obtained in RIPA buffer (ThermoFischer Scientific) supplemented with complete protease inhibitor cocktail (Roche) and phosphatase inhibitor cocktail (Sigma). The primary antibodies used were against PAX7 (DHSB), LAMININ (Sigma L9393), MYOG (Abcam 124800 and Santacruz sc-12732), and β-ACTIN (Sigma A5441). Alexa™ Fluor-488, Alexa™ Fluor-594 and Alexa™ Fluor-647 conjugated secondary anti-mouse IgG1, anti-mouse IgG2B or anti-rabbit antibodies (Life technologies) were used for immunofluorescence. Horseradish peroxidase (HRP) conjugated anti-mouse or anti-rabbit secondary antibodies (Jackson Immunoresearch) were used with the ECL™ Prime Western Blotting Detection reagents (GE Healthcare). Densitometry of immunoblots was performed with ImageJ™.
To determine the effect of C15 on elF2α phosphorylation, C2C12 cell lysates cultured for twelve hours in the presence of sal003 (10 μM) or C15 (0.1 μM and 0.2 μM) were immunoblotted.

[2] = system: Dmd^mdx mice; assay: In vivo administration by osmotic pump in Dmd^mdx mouse model of Duchenne muscular dystrophy
Protocol: FIG. 20 is a schematic diagram of in vivo administration of C15 by an osmotic pump in the Dmd^mdx mouse model of Duchenne muscular dystrophy, specifically Alzet™ 2001 osmotic pumps were used to deliver 2.5 mg/kg/day of C15 with a vehicle containing 50:50 DMSO:[…] at a flow rate of 0.5 μL/hr by a subcutaneous implantation of the Alzet™ 2001 osmotic pumps into Dmd^mdx mouse, and 14 days later muscle was harvested for quantification by fluorescence of the myofibre CSA (red) and PAX7(+) (green) satellite cell compartment.
In this example, the effect of C15 on the dephosphorylated levels of elF2α was studied. Animal care practices were performed in accordance with the federal Canadian Council on Animal Care, as practiced by McGill University. All mice were maintained on a C57/BI6 background. Dmd^mdx mice, aged 8-10 weeks, were implanted (sub-cutaneously) with osmotic pumps (Alzet™) to deliver C15 at a rate of 2.5 mg/kg/day. C15 was dissolved in a 50:50 solution of DMSO:PEG400. At indicated time points, muscle was harvested for analysis by immunofluorescence.
(§2) Immunoassays were also performed to further confirm the effect of C15 on the dephosphorylation of elF2α. For immunofluorescence, cultured satellite cells were fixed in 4% paraformaldehyde (PFA), permeabilized with 0.2% Triton™, 50 mM NH4Cl and blocked in 5% horse serum (HS). Single EDL myofibers were fixed with 4% PFA, permeabilized with 0.1% Triton™ in PBS and blocked in 5% horse serum (HS) with 0.1% Triton™ in PBS. TA muscles were fixed for 2 hr in 0.5% PFA at 4° C. and equilibrated overnight in 20% sucrose at 4° C. Tissues were mounted in Frozen Section Compound (VWR) and flash frozen in a liquid nitrogen-cooled isopentane bath. Transverse sections (10 μm) were permeabilized with 0.1% Triton™, 0.1M Glycine in PBS, and blocked in Mouse on Mouse (M.O.M.) reagent (Vector Labs).

[3] = system: MuSCs isolated from skeletal muscle of Dmd^mdx mice; assay: Ex vivo culture of MuSCs from Dmd^mdx mice: PAX7 expression, myocolony size, fusion index; format: cell-based
Protocol: as §1
PAX7 expression marks MuSCs that retained stem cell properties to regenerate muscle. Under normal culture conditions, PAX7-expression is down regulated as MuSCs differentiate and lose their stem cell properties to regenerate muscle. […] Conceptually, these ex vivo results support a model by which pharmacological interventions that promote MuSC expansion (FIG. 10A, FIG. 10B, and FIG. 11) in the short term will lead to improved muscle mass and strength in the long term.
as §2

[4] = system: P-elF2α dependent read-through of Atf4 uORFs (Atf4-fluc reporter) in HEK293 cells; assay: Atf4-luciferase reporter (Fluc/Rluc ratio) in transfected HEK293 cells; format: cell-based
From the text: The Atf4- and Tacc3-luciferase constructs were made by cloning gBlock gene fragments (Integrated DNA Technologies) corresponding to 5′UTRs of Mus musculus Atf4 and Tacc3, fused to the 5′end of the fluc gene up to the Narl restriction enzyme site. Mutant versions of Atf4 and Tacc3 5′UTRs were designed with each ATG start codon of uORFs deleted. These 5′UTR gene fragments were cloned into Hindlll, Narl sites upstream of the firefly luciferase (fluc) gene in pGL3-promoter plasmids, thereby maintaining the final overlapping uORF with the main ORF for fluc (Promega™). FIG. 5A and FIG. 5B show a schematic of the formation of a pre-initiation complex that includes many factors including the a subunit (elF2α) that is dephosphorylated (FIG. 5A) or phosphorylated (FIG. 5B). The pre-initiation complex associates with the uORFs, where, if phosphorylated, translation initiation of the uORFs occurs upstream of Atf4 and continues to translate Atf4. However, if elF2α is dephosphorylated (FIG. 5A), no translation initiation occurs for Atf4 as the pre-initiation complex dissociates from the uORFs.
HEK293 cells were plated in 24-well plates at a density of 25,000 cells/well and incubated overnight. […] The cells were then lysed and the Fluc/Rluc ratio was determined using the Promega™ Dual-Luciferase Reporter kit (Madison, USA). […]

[5] = system: PAX7-expressing muscle stem cells (MuSCs); assay: DDX6-positive RNA granules in PAX7-expressing MuSCs, ex vivo culture, immunofluorescence; format: cell-based, mice
Protocol: as §1
P-elF2α is required for the assembly of DDX6-positive(+) RNA granules in quiescent and self-renewing satellite cells. Activated muscle stem cells (MuSCs) dephosphorylate elF2α, RNA granules disassemble, and the myogenic program is activated.
as §2, with “Transverse sections (10 μm) were permeabilized with 0.1% Triton™, 0.1M Glycine in PBS, and blocked in Mouse on Mouse (M.O.M.) reagent (Vector Labs).” left out

[6] = system: satellite cells; assay: Ex vivo expansion of cultured cells; format: cell-based; conditions: sal003 concentrations lower than 10 μM
Protocol: Moreover, cells and single EDL myofibres were cultured in 39% Dulbecco's modified eagle medium (DMEM), 39% F12, 20% fetal calf serum (FCS) (Life Technologies), 2% UltroserG™ (Pall Life Sciences). C2C12 myoblasts were cultured in DMEM supplemented with 20% FCS. […]

SMILES	P-elF2α levels (P-elF2α : total elF2α) ([1]; C2C12 cells, 12 hours, C15 0.1 to 0.2 μM vs sal003 10 μM (FIG. 15, 16))	activity of increasing P-elF2α levels after incubation at 37° C. (stability) ([1]; C15 10 μM, incubated at 37° C. for 0-3 weeks, C2C12 cells (FIG. 17, 18))	MuSC associated RNA granules (EDL myofibres) ([2]; 2.5 mg/kg/day C15, osmotic pump s.c., two weeks (FIG. 21))	myofiber cross sectional area of treated muscle ([2]; 2.5 mg/kg/day C15, two weeks)	numbers of central nucleated myofibres ([2]; 2.5 mg/kg/day C15, two weeks)	numbers of PAX7-expressing MuSCs on single EDL myofibres ([2]; 2.5 mg/kg/day C15, two weeks (FIG. 23))	numbers of PAX7-expressing MuSCs on transverse sections of tibialis anterior (TA) ([2]; 2.5 mg/kg/day C15, two weeks (FIG. 24))	numbers of PAX7-expressing MuSCs on transverse sections of diaphragm ([2]; 2.5 mg/kg/day C15, two weeks (FIG. 25))	fusion index (number of nuclei per myotube) ([3]; 0.2 μM C15, 7 days (FIG. 14))	PAX7 expression of Dmd^mdx MuSCs ([3]; 0.2 μM C15, cultured 3 days (FIG. 10, 11))	myocolony size ([3]; 0.2 μM C15, long periods of time (7 days; FIG. 12, 13))	P-elF2α activity to enable read-through of uORFs after incubation at 37° C. (stability) ([4]; C15 10 μM, incubated at 37° C. for 0-3 weeks, HEK293 cells (FIG. 19))	luciferase activity (Atf4-fluc reporter) ([4]; HEK293 cells, overnight, 10 μM, compared with sal003, C10 and DMSO (FIG. 6))	DDX6(+) RNA granules in PAX7-expressing MuSCs, culture of isolated MuSCs ([5]; 0.2 μM C15, 4-day culture (FIG. 9))	DDX6(+) RNA granules in PAX7-expressing MuSCs, culture of single myofibres ([5]; 0.2 μM C15, after 6 h (FIG. 7, 8))	ex vivo expansion of cells [6]
CC(C)(C)c1ccc(NC(=S)NC(NC(=O)/C=C/c2ccccc2)C(Cl)(Cl)Cl)cc1 (stereo not shown) [C15]	increased the P-elF2α levels to a level equivalent to 10 μM sal003	maintained the activity of increasing P-elF2α levels	maintenance of MuSC associated RNA granules	increased	decreased	increased numbers	increased numbers	increased numbers	larger fusion index	maintain PAX7 expression	larger myocolonies	maintained	significantly increases luciferase activity, higher than sal003 and C10	maintained	maintained	
O=C(/C=C/c1ccccc1)NC(NC(=S)Nc1ccc(Cl)cc1)C(Cl)(Cl)Cl (stereo not shown) [sal003]																not possible to expand the cells ex vivo at sal003 concentrations lower than 10 μM
